Data taken from patent US8247211B2, “Glycopeptide antibiotics” (American Cyanamid Company, priority 2001, dated 2012).
≈ marks a conversion by molar mass, not a printed value.

Experiments:
Assay in all cases: In vitro antibacterial evaluation: minimum inhibitory concentration (MIC), broth dilution method
Assay type in all cases: cell-based
[1] = tested on: Staphylococcus sp.; conditions: broth dilution, 18 hours at 35° C.
Method in brief: (§1)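 NCCLS M7-A2 broth dilution with Mueller-Hinton II, testing 64-0.06 μg/mL antibiotic against 5×10^5 CFU/mL inocula. Test strains include recent methicillin-, penicillin- or vancomycin-resistant clinical isolates. MIC is the lowest concentration preventing growth.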

[2] = tested on: Escherichia coli; conditions: strain GC 4560
Method in brief: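 MIC read as lowest drug level preventing visible growth. Organisms at 5×10^5 CFU/mL were exposed to a 64-0.06 μg/mL dilution series in Muller-Hinton II […] following NCCLS broth dilution standard M7-A2.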

[3] = tested on: Streptococcus sp.
Method in brief: as §1

[4] = tested on: Enterococcus sp.
Method in brief: as §1

[5] = broth dilution, inoculum 5×10^5 CFU/mL, 18 hours at 35° C.

Structure (SMILES): CCOc1cc(C2OCC3OC(OC4C(CO)OC(Oc5ccc(CC6NC(=O)C(C(C)c7ccccc7)NC(=O)CNC(=O)C(CO)NC(=O)C(C(O)C7CNC(=N)N7C7OC(CO)C(O)C(O)C7O)NC(=O)C(C(O)C7CNC(=N)N7)NC6=O)cc5)C(O)C4O)C(O)C(O)C3O2)ccc1[N+](=O)[O-] (stereo not drawn) [Example 167, Cyclo[glycyl-β-methylphenylalanyl-O-[4-O-[4,6-O-(3-ethoxy-4-nitrobenzylidene)hexopyranosyl]hexopyranosyl]tyrosyl-3-(2-iminoimidazolidin-4-yl)seryl-3-(3-hexopyranosyl-2-iminoimidazolidin-4-yl)serylseryl]]
- MIC Coagulase Negative Staphylococcus (GC 4547) ([1]; 5×10^5 CFU/mL): 8 µg/mL (≈ 5.43 µM)
- MIC Coagulase Negative Staphylococcus (GC 4548) ([1]; 5×10^5 CFU/mL): 8 µg/mL (≈ 5.43 µM)
- MIC Coagulase Negative Staphylococcus (GC 4549) ([1]; 5×10^5 CFU/mL): 8 µg/mL (≈ 5.43 µM)
- MIC Coagulase Negative Staphylococcus (GC 4551) ([1]; 5×10^5 CFU/mL): 16 µg/mL (≈ 10.9 µM)
- MIC Coagulase Negative Staphylococcus (GC 6257) ([1]; 5×10^5 CFU/mL): 8 µg/mL (≈ 5.43 µM)
- MIC Staphylococcus aureus (ATCC 29213) ([1]; 5×10^5 CFU/mL): 16 µg/mL (≈ 10.9 µM)
- MIC Staphylococcus aureus (GC 1131) ([1]; 5×10^5 CFU/mL): 16 µg/mL (≈ 10.9 µM)
- MIC Staphylococcus aureus (GC 3051) ([1]; 5×10^5 CFU/mL): 16 µg/mL (≈ 10.9 µM)
- MIC Staphylococcus aureus (GC 3053) ([1]; 5×10^5 CFU/mL): 16 µg/mL (≈ 10.9 µM)
- MIC Staphylococcus aureus (GC 4541) ([1]; 5×10^5 CFU/mL): 8 µg/mL (≈ 5.43 µM)
- MIC Staphylococcus aureus (GC 4542) ([1]; 5×10^5 CFU/mL): 16 µg/mL (≈ 10.9 µM)
- MIC Staphylococcus aureus (GC 4544) ([1]; 5×10^5 CFU/mL): 16 µg/mL (≈ 10.9 µM)
- MIC Staphylococcus aureus (GC 4545) ([1]; 5×10^5 CFU/mL): 16 µg/mL (≈ 10.9 µM)
- MIC Staphylococcus aureus-SMITH (GC 4543) ([1]; 5×10^5 CFU/mL): 16 µg/mL (≈ 10.9 µM)
- MIC Staphylococcus haemolyticus (GC 4546) ([1]; 5×10^5 CFU/mL): 16 µg/mL (≈ 10.9 µM)
- MIC Staphylococcus aureus (ATCC 29213) ([1]; strain ATCC 29213): 16 µg/mL (≈ 10.9 µM)
- MIC Staphylococcus aureus (GC 1131) ([1]; strain GC 1131): 16 µg/mL (≈ 10.9 µM)
- MIC Staphylococcus aureus (GC 3051) ([1]; strain GC 3051): 16 µg/mL (≈ 10.9 µM)
- MIC Staphylococcus aureus (GC 3053) ([1]; strain GC 3053): 16 µg/mL (≈ 10.9 µM)
- MIC Staphylococcus aureus (GC 4541) ([1]; strain GC 4541): 8 µg/mL (≈ 5.43 µM)
- MIC Staphylococcus aureus (GC 4542) ([1]; strain GC 4542): 16 µg/mL (≈ 10.9 µM)
- MIC Staphylococcus aureus-SMITH (GC 4543) ([1]; strain GC 4543): 16 µg/mL (≈ 10.9 µM)
- MIC Staphylococcus aureus (GC 4544) ([1]; strain GC 4544): 16 µg/mL (≈ 10.9 µM)
- MIC Staphylococcus aureus (GC 4545) ([1]; strain GC 4545): 16 µg/mL (≈ 10.9 µM)
- MIC Staphylococcus haemolyticus (GC 4546) ([1]; strain GC 4546): 16 µg/mL (≈ 10.9 µM)
- MIC Coagulase Negative Staphylococcus (GC 4547) ([1]; strain GC 4547): 8 µg/mL (≈ 5.43 µM)
- MIC Coagulase Negative Staphylococcus (GC 4548) ([1]; strain GC 4548): 8 µg/mL (≈ 5.43 µM)
- MIC Coagulase Negative Staphylococcus (GC 4549) ([1]; strain GC 4549): 8 µg/mL (≈ 5.43 µM)
- MIC Coagulase Negative Staphylococcus (GC 4551) ([1]; strain GC 4551): 16 µg/mL (≈ 10.9 µM)
- MIC Coagulase Negative Staphylococcus (GC 6257) ([1]; strain GC 6257): 8 µg/mL (≈ 5.43 µM)
- MIC Escherichi coli (GC 4560) [2]: 8 µg/mL (≈ 5.43 µM)
- MIC Streptococcus agalactiae (GC 4564) [3, 5]: 2 µg/mL (≈ 1.36 µM)
- MIC Streptococcus pneumoniae (ATCC 6301) [3, 5]: 1 µg/mL (≈ 0.679 µM)
- MIC Streptococcus pneumoniae (GC 1894) [3, 5]: 0.25 µg/mL (≈ 0.17 µM)
- MIC Streptococcus pneumoniae (GC 4565) [3, 5]: 1 µg/mL (≈ 0.679 µM)
- MIC Streptococcus pyogenes (GC 4563) [3, 5]: 1 µg/mL (≈ 0.679 µM)
- MIC Streptococcus pneumoniae (ATCC 6301) ([3]; strain ATCC 6301): 1 µg/mL (≈ 0.679 µM)
- MIC Streptococcus pneumoniae (GC 1894) ([3]; strain GC 1894): 0.25 µg/mL (≈ 0.17 µM)
- MIC Streptococcus pyogenes (GC 4563) ([3]; strain GC 4563): 1 µg/mL (≈ 0.679 µM)
- MIC Streptococcus agalactiae (GC 4564) ([3]; strain GC 4564): 2 µg/mL (≈ 1.36 µM)
- MIC Streptococcus pneumoniae (GC 4565) ([3]; strain GC 4565): 1 µg/mL (≈ 0.679 µM)
- MIC Enterococcus avium (GC 4558) [4, 5]: 32 µg/mL (≈ 21.7 µM)
- MIC Enterococcus faecalis (ATCC 29212) [4, 5]: 32 µg/mL (≈ 21.7 µM)
- MIC Enterococcus faecalis (GC 2242) [4, 5]: 32 µg/mL (≈ 21.7 µM)
- MIC Enterococcus faecalis (GC 2691) [4, 5]: 32 µg/mL (≈ 21.7 µM)
- MIC Enterococcus faecalis (GC 3059) [4, 5]: 32 µg/mL (≈ 21.7 µM)
- MIC Enterococcus faecalis (GC 4552) [4, 5]: 32 µg/mL (≈ 21.7 µM)
- MIC Enterococcus faecalis (GC 4553) [4, 5]: 32 µg/mL (≈ 21.7 µM)
- MIC Enterococcus faecalis (GC 4554) [4, 5]: 32 µg/mL (≈ 21.7 µM)
- MIC Enterococcus faecalis (GC 6189) [4, 5]: 32 µg/mL (≈ 21.7 µM)
- MIC Enterococcus faecium (GC 2243) [4, 5]: 32 µg/mL (≈ 21.7 µM)
- MIC Enterococcus faecium (GC 4556) [4, 5]: 32 µg/mL (≈ 21.7 µM)
- MIC Enterococcus faecium (GC 4557) [4, 5]: 8 µg/mL (≈ 5.43 µM)
- MIC Enterococcus faecalis (ATCC 29212) ([4]; strain ATCC 29212): 32 µg/mL (≈ 21.7 µM)
- MIC Enterococcus faecalis (GC 2242) ([4]; strain GC 2242): 32 µg/mL (≈ 21.7 µM)
- MIC Enterococcus faecium (GC 2243) ([4]; strain GC 2243): 32 µg/mL (≈ 21.7 µM)
- MIC Enterococcus faecalis (GC 2691) ([4]; strain GC 2691): 32 µg/mL (≈ 21.7 µM)
- MIC Enterococcus faecalis (GC 3059) ([4]; strain GC 3059): 32 µg/mL (≈ 21.7 µM)
- MIC Enterococcus faecalis (GC 4552) ([4]; strain GC 4552): 32 µg/mL (≈ 21.7 µM)
- MIC Enterococcus faecalis (GC 4553) ([4]; strain GC 4553): 32 µg/mL (≈ 21.7 µM)
- MIC Enterococcus faecalis (GC 4554) ([4]; strain GC 4554): 32 µg/mL (≈ 21.7 µM)
- MIC Enterococcus faecium (GC 4556) ([4]; strain GC 4556): 32 µg/mL (≈ 21.7 µM)
- MIC Enterococcus faecium (GC 4557) ([4]; strain GC 4557): 8 µg/mL (≈ 5.43 µM)
- MIC Enterococcus avium (GC 4558) ([4]; strain GC 4558): 32 µg/mL (≈ 21.7 µM)
- MIC Enterococcus faecalis (GC 6189) ([4]; strain GC 6189): 32 µg/mL (≈ 21.7 µM)
